Species: Rattus norvegicus
Assay: DrugMatrix - Regimen: Daily Repeat
Format: toxicity, organism-based, Sprague-Dawley
Parameters: regimen Daily Repeat, gender Male, age 6-8 weeks
Settings: in vivo, po, route oral GAVAGE, […]; for ABSOLUTE BASOPHIL / ABSOLUTE EOSINOPHIL / ABSOLUTE LYMPHOCYTE / ABSOLUTE MONOCYTE / ABSOLUTE SEGMENTED NEUTROPHIL / BASOPHIL / EOSINOPHIL / ERYTHROCYTE COUNT / HEMATOCRIT / HEMOGLOBIN / LEUKOCYTE COUNT / LYMPHOCYTE / MEAN CORPUSCULAR HEMOGLOBIN / MEAN CORPUSCULAR HEMOGLOBIN CONCENTRATION / MEAN CORPUSCULAR VOLUME / MONOCYTE / NEUTROPHIL / NUCLEATED RED BLOOD CELLS / PLATELET COUNT: tissue Blood; for ALANINE AMINOTRANSFERASE / ALBUMIN / ALKALINE PHOSPHATASE / ASPARTATE AMINOTRANSFERASE / BLOOD UREA NITROGEN / CARBON DIOXIDE / CHLORIDE / CHOLESTEROL / CREATINE PHOSPHOKINASE / CREATININE / GLUCOSE / LACTATE DEHYDROGENASE / LIPASE / PHOSPHORUS / POTASSIUM / SODIUM / TOTAL BILIRUBIN / TOTAL PROTEIN / URIC ACID: tissue Plasma
[1] = 0 mg/kg, 72 h, dose level Control, time 3 day
[2] = 0 mg/kg, 120 h, dose level Control, time 5 day
[3] = 30 mg/kg, 72 h, dose level Low, time 3 day

Compound: CCCCC(=O)N(Cc1ccc(-c2ccccc2-c2nnn[nH]2)cc1)[C@H](C(=O)O)C(C)C
- ABSOLUTE BASOPHIL [1]: 0 CELLS/uL
- ABSOLUTE EOSINOPHIL [1]: 13.67 CELLS/uL
- ABSOLUTE LYMPHOCYTE [1]: 10069.5 CELLS/uL
- ABSOLUTE MONOCYTE [1]: 50 CELLS/uL
- ABSOLUTE SEGMENTED NEUTROPHIL [1]: 516.83 CELLS/uL
- BASOPHIL [1]: 0%
- EOSINOPHIL [1]: 0.17%
- ERYTHROCYTE COUNT [1]: 5.44 x10E6/uL
- HEMATOCRIT [1]: 33.88%
- HEMOGLOBIN [1]: 13.23 G/DL
- LEUKOCYTE COUNT [1]: 10.65 x10E3/uL
- LYMPHOCYTE [1]: 94.67%
- MEAN CORPUSCULAR HEMOGLOBIN [1]: 24.37 pg
- MEAN CORPUSCULAR HEMOGLOBIN CONCENTRATION [1]: 39.05 G/DL
- MEAN CORPUSCULAR VOLUME [1]: 62.38 fL
- MONOCYTE [1]: 0.67%
- NEUTROPHIL [1]: 4.5%
- NUCLEATED RED BLOOD CELLS [1]: 0.33 /100WBC
- PLATELET COUNT [1]: 414.5 x10E3/uL
- ALANINE AMINOTRANSFERASE [1]: 72 u/L
- ALBUMIN [1]: 3.75 G/DL
- ALKALINE PHOSPHATASE [1]: 375 u/L
- ASPARTATE AMINOTRANSFERASE [1]: 87.5 u/L
- BLOOD UREA NITROGEN [1]: 14 mg/dL
- CARBON DIOXIDE [1]: 27.5 mmol/L
- CHLORIDE [1]: 95.83 MEQ/L
- CHOLESTEROL [1]: 68.5 mg/dL
- CREATINE PHOSPHOKINASE [1]: 284.33 u/L
- CREATININE [1]: 0.16 mg/dL
- GLUCOSE [1]: 156.67 mg/dL
- LACTATE DEHYDROGENASE [1]: 101.83 u/L
- LIPASE [1]: 9.67 u/L
- PHOSPHORUS [1]: 10.33 mg/dL
- POTASSIUM [1]: 5.22 MEQ/L
- SODIUM [1]: 137.67 MEQ/L
- TOTAL BILIRUBIN [1]: 0.13 mg/dL
- TOTAL PROTEIN [1]: 5.43 G/DL
- URIC ACID [1]: 0.8 mg/dL
- ABSOLUTE BASOPHIL [2]: 0 CELLS/uL
- ABSOLUTE EOSINOPHIL [2]: 20.67 CELLS/uL
- ABSOLUTE LYMPHOCYTE [2]: 11518.33 CELLS/uL
- ABSOLUTE MONOCYTE [2]: 47 CELLS/uL
- ABSOLUTE SEGMENTED NEUTROPHIL [2]: 614 CELLS/uL
- BASOPHIL [2]: 0%
- EOSINOPHIL [2]: 0.17%
- ERYTHROCYTE COUNT [2]: 5.61 x10E6/uL
- HEMATOCRIT [2]: 34.25%
- HEMOGLOBIN [2]: 13.38 G/DL
- LEUKOCYTE COUNT [2]: 12.2 x10E3/uL
- LYMPHOCYTE [2]: 94.33%
- MEAN CORPUSCULAR HEMOGLOBIN [2]: 23.83 pg
- MEAN CORPUSCULAR HEMOGLOBIN CONCENTRATION [2]: 39.08 G/DL
- MEAN CORPUSCULAR VOLUME [2]: 61.03 fL
- MONOCYTE [2]: 0.33%
- NEUTROPHIL [2]: 5.17%
- NUCLEATED RED BLOOD CELLS [2]: 0 /100WBC
- PLATELET COUNT [2]: 941.83 x10E3/uL
- ALANINE AMINOTRANSFERASE [2]: 68.83 u/L
- ALBUMIN [2]: 4.12 G/DL
- ALKALINE PHOSPHATASE [2]: 492.67 u/L
- ASPARTATE AMINOTRANSFERASE [2]: 83.33 u/L
- BLOOD UREA NITROGEN [2]: 14 mg/dL
- CARBON DIOXIDE [2]: 37 mmol/L
- CHLORIDE [2]: 98.67 MEQ/L
- CHOLESTEROL [2]: 56.5 mg/dL
- CREATINE PHOSPHOKINASE [2]: 167.33 u/L
- CREATININE [2]: 0.17 mg/dL
- GLUCOSE [2]: 157.5 mg/dL
- LACTATE DEHYDROGENASE [2]: 104.83 u/L
- LIPASE [2]: 10 u/L
- PHOSPHORUS [2]: 10.43 mg/dL
- POTASSIUM [2]: 5.46 MEQ/L
- SODIUM [2]: 143.87 MEQ/L
- TOTAL BILIRUBIN [2]: 0.17 mg/dL
- TOTAL PROTEIN [2]: 5.72 G/DL
- URIC ACID [2]: 0.85 mg/dL
- ABSOLUTE BASOPHIL [3]: 0 CELLS/uL
- ABSOLUTE EOSINOPHIL [3]: 32 CELLS/uL
- ABSOLUTE LYMPHOCYTE [3]: 7448.67 CELLS/uL
- ABSOLUTE MONOCYTE [3]: 0 CELLS/uL
- ABSOLUTE SEGMENTED NEUTROPHIL [3]: 586 CELLS/uL
- BASOPHIL [3]: 0%
- EOSINOPHIL [3]: 0.33%
- ERYTHROCYTE COUNT [3]: 5.55 x10E6/uL
- HEMATOCRIT [3]: 33.7%
- HEMOGLOBIN [3]: 13.27 G/DL
- LEUKOCYTE COUNT [3]: 8.07 x10E3/uL
- LYMPHOCYTE [3]: 92.33%
- MEAN CORPUSCULAR HEMOGLOBIN [3]: 23.9 pg
- MEAN CORPUSCULAR HEMOGLOBIN CONCENTRATION [3]: 39.33 G/DL
- MEAN CORPUSCULAR VOLUME [3]: 60.7 fL
- MONOCYTE [3]: 0%
- NEUTROPHIL [3]: 7.33%
- NUCLEATED RED BLOOD CELLS [3]: 0.67 /100WBC
- PLATELET COUNT [3]: 891 x10E3/uL
- ALANINE AMINOTRANSFERASE [3]: 67.67 u/L
- ALBUMIN [3]: 3.93 G/DL
- ALKALINE PHOSPHATASE [3]: 446.33 u/L
- ASPARTATE AMINOTRANSFERASE [3]: 94.33 u/L
- BLOOD UREA NITROGEN [3]: 14.33 mg/dL
- CARBON DIOXIDE [3]: 25 mmol/L
- CHLORIDE [3]: 95.5 MEQ/L
- CHOLESTEROL [3]: 77.67 mg/dL
- CREATINE PHOSPHOKINASE [3]: 130 u/L
- CREATININE [3]: 0.19 mg/dL
- GLUCOSE [3]: 147 mg/dL
- LACTATE DEHYDROGENASE [3]: 98 u/L
- LIPASE [3]: 11.33 u/L
- PHOSPHORUS [3]: 9.5 mg/dL
- POTASSIUM [3]: 5.71 MEQ/L
- SODIUM [3]: 138.1 MEQ/L
- TOTAL BILIRUBIN [3]: 0.1 mg/dL
- TOTAL PROTEIN [3]: 5.53 G/DL
- URIC ACID [3]: 0.57 mg/dL

From ChEMBL document CHEMBL3885881, “DrugMatrix”
